Data set [1] relates to Ras. As to the kind of experiment: Ras in membranes (P100) and cytosol (S100) of cultured spleen lymphocytes (Western immunoblot). The data set is classed as cell-based, mouse. To be noted: for amount of insoluble (P100) Ras: 24 h, relative to FTS 0 μM = 100. As for the experimental part: Spleen lymphocytes, obtained from six mice as described above, were pooled and plated in 10 cm dishes containing RPMI/5% FCS at a density of 2.3×10^7 cells per plate. […] Twenty-four hours later the cells were collected (pools of 2 plates for each treatment) and washed in PBS. The cells were then homogenized in homogenization buffer containing protease inhibitors. Ras was determined in total cell membranes (P100) and cytosol (S100) obtained by centrifugation ([…], 30 min, 4° C.). Briefly, 25 μg of total cellular proteins were separated by 12.5% sodium dodecylsulfate polyacrylamide gel electrophoresis (SDS-PAGE) and blotted onto nitrocellulose membranes. Immunoblotting with pan-Ras, enhanced chemiluminescense assays (ECL) and densitometric analysis were then performed as detailed previously (14).
On the technique in general: In western blotting, separated proteins are transferred to a membrane and probed.

Data set [2] has as its system TAA-induced liver cirrhosis in Wistar rats. As to the kind of experiment: Thioacetamide (TAA)-induced liver cirrhosis in rats, liver histopathology. The format is in vivo, rat. As for the experimental part:
Liver cirrhosis was induced in rats by intraperitoneal (i.p.) administration of TAA 200 mg/kg twice weekly for 12 weeks, as previously described (1, 2).
(§1) The FTS was dissolved in PBS and administered i.p. 3 times a week to rats according to their assigned groups. Four groups containing 6 rats each were treated as follows. One group received TAA 200 mg/kg i.p. twice a week and i.p. injections of PBS 3 days a week for 12 weeks (cirrhotic controls for the FTS-treated groups). A second group received TAA for 12 weeks and FTS 5 mg/kg, 3 times a week. […] The two control groups consisted of one that received PBS injections without TAA for 12 weeks (normal controls) and a group of 5 rats that received only FTS 5 mg/kg i.p. for 12 weeks to monitor the appearance of adverse effects.
The rats were sacrificed at the completion of the treatment protocols. Their livers were removed and midsections of the left lobes of the livers were processed for light microscopy. This processing consisted of fixing the specimens in a 5% neutral formol solution, embedding the specimens in paraffin, making sections of 5 μm thickness, and staining the sections with hematoxylin and eosin. Reticulin stain was performed to enhance the visualization of the extent and distribution of liver fibrosis. The tissue slices were scanned and scored by two expert pathologists who were not aware of the sample source. The degree of inflammation and fibrosis was expressed as the mean of 10 different fields in each slide that had been classified on a scale of 0-3 according to Muller, et al(3).

Data set [3] has as its system MRL/lpr mice. Put plainly: Disease activity in MRL/lpr mice (proteinuria, lymphadenopathy, grip strength; Example 4). The data set is classed as in vivo, mouse. The protocol: One of the important measures of disease activity in MRL/lpr mice is proteinuria. Levels of proteinura were measured weekly by means of dip-sticks in MRL/lpr and Mrl/++ mice treated daily with FTS or with vehicle alone. Significant proteinuria developed in the MRL/lpr treated with vehicle compared to the MRL/++ groups. […] Other systemic measures of disease activity including lymphadenopathy and lymphocyte proliferation were normalized in FTS treated MRL/lpr mice (not shown).

Data set [4] concerns Ras. As to the kind of experiment: Ras expression in rat liver membranes (Western blot). The format is in vivo. The protocol: The levels of Ras proteins in the rat livers were determined by immunoblotting assays using anti Ras antibodies (PanRasAb03, Santa Cruz) as detailed previously (4, 5). Briefly, the livers were homogenized (10% w/v) in 0.32M sucrose, 50 mM Tris HCl, pH 7.4 buffer containing 3mM EDTA, 1 mM EGTA, 5 μg/ml pepstatine, and 5 units/ml opsotonin. Nuclei and cell debris were removed by a 10-minute 1000×g spin. The plasma membrane-enriched fraction was obtained by a 20,000×g 30 minute spin. The resulting pellets were resuspended in homogenization buffer and samples containing 20 μg proteins were used for 12.5% SDS-PAGE (mini gels). The gels were subjected to immunoblotting assays as described previously (4). Each western blot was analyzed 3 times and the data in FIG. 17 represent the means±SD OD of these 3 blots. Ras was also determined by immunohistochemistry.

The subject of data set [5] is MRL/lpr mice. As to the kind of experiment: Proteinuria (dipstick) in MRL mice. The format is in vivo, mouse. To be noted: MRL/lpr mice treated 5 days a week from 6 weeks of age. The protocol: The presence of proteinuria was measured on freshly expressed urine samples at weekly intervals. The protein content was evaluated semiquantitatively using a commercial dipstick method (Macherey-Nagel, Germany). This colorimetric assay is specific for albumin, with approximate protein concentration as follows: 0, 30, 100 and 500 mg/dl (mg%).

In data set [6] the test system is EAN in Lewis rats. As to the kind of experiment: EAN rats, electrophysiology (tail nerve stimulation, CMAP). The data set is classed as in vivo, rat. To be noted: day 20; FTS for 10 or 28 days. The protocol:
The animal was anesthetized with phenobarbital. […] Previous experience has shown that smaller amounts are necessary during the acute EAN disease phase in order to avoid mortality. Mono-polar needle electrodes were used to stimulate the sciatic nerve and the response was measured in the plantar muscle by a surface ring electrode (8). Alternatively, the tail nerves were stimulated and tail muscle response measured by the same electrodes. […] The tail response was therefore be used in the early disease stage (days 18-22). The latency of responses to distal and proximal stimulation were used to calculate nerve conduction velocity. The amplitude of the responses was used to assess conduction block. Electrophysiological assays were performed on day 20 in the 3 groups of rats described in the previous section.

For data set [7], the system named is Wistar rats. The format is in vivo. The protocol: as §1
In order to monitor the presence of adverse effects caused by the prolonged administration of FTS, a control group received the Ras antagonist for 12 weeks.

The test system of data set [8] is Balb-C mice immunized with ApoH. As to the kind of experiment: Autoantibodies in Balb-C mice immunized with ApoH (induced APS model). The data set is classed as in vivo, mouse. To be noted: 9 per group. The protocol:
Similar antibody assays were performed with the sera of Balb-C mice (9 per group) immunized with ApoH 10 μg in complete Freund's adjuvant with boosts given 2 and 6 weeks later in incomplete adjuvant.

Setting [9] is: FTS 5 mg/kg alone, 12 weeks, no TAA.
Setting [10] is: TAA + FTS 5 mg/kg 3 times/week for 12 weeks.

Structures are written as SMILES. Entries after “also recorded” stand apart in the source; their conditions may differ.

As for `CC(C)=CCC/C(C)=C/CC/C(C)=C/CSc1ccccc1C(=O)O` [FTS, farnesyl thiosalicylic acid], the “amount of insoluble (P100) Ras” value is 84±9.8% in data set [1] (FTS 12.5 μM) and 52±16% in data set [1] (FTS 50μM as printed). The “levels of soluble (S100) Ras” value in data set [1] (FTS 12.5 and 25 μM) was “no concomitant observable change”. In addition, the “Fibrotic septa (0-3)” value in data set [2] (setting [9]) is recorded as 0; in data set [2] (setting [10]), 0.9±0.5. The “Nodule formation (0-3)” value was 0 in data set [2] (setting [9]) and 0.7 ± 0.6 in data set [2] (setting [10]). Besides, in data set [3] (MRL/lpr mice), the “lymphadenopathy and lymphocyte proliferation” value is “normalized”. Further, the “weakness as measured by grip strength on a horizontal bar” value in data set [3] (MRL/lpr mice) is on record as “normalized by FTS treatment”. The “proteinuria (dip-sticks, FIG. 15)” value in data set [3] (MRL/lpr mice treated daily) is “did not develop significant proteinuria”. For the same compound, in data set [4] (FTS treatment), the “decrease in Ras expression in the livers of TAA-treated rats” value is 70%. Besides, the “Ras levels in liver membranes, fold higher than control group” value in data set [4] (TAA+FTS treated group, TAA alone 17.6±2.0-fold) was 4.9±1.2 fold. Further, the proteinuria entry in data set [5] was “very low levels of proteinuria; also recorded: normalized”. The “compound muscle action potentials (CMAPs), tail muscle” value in data set [6] was “significant amelioration”. Further, in data set [7] (FTS 5 mg/kg alone for 12 weeks), the “mortality and adverse effects” value is reported as “no mortality or major adverse effects”. The “survival after 12 weeks” value in data set [7] (TAA+FTS, n=6) is on record as “none of the rats died”. Further, in data set [8], the “anti-ApoH, anti-ds DNA and anti-phosphatidyl-ethanolamine levels” value was “significant effect of FTS treatment”.

Source of the values: patent publication US6462086B1, “Non-malignant disease treatment with Ras antagonists” (Ramot University Authority for Applied Research and …, priority 1999, dated 2002).
